Test results reported in patent publication US9662372B2 (priority 2013, dated 2017).

What was measured:
C. difficile ATCC 9689 [1] = assay: Bacterial mass in wells of PM panels (OD 750 nm); assay type: cell-based, Clostridium difficile; details: OD difference with vs without C. difficile, 72 h
C. difficile ATCC 9689 [2] = assay type: cell-based, Clostridium difficile
[3] = nitrogen source (PM03/06/07/08)
[4] = phosphorus/sulfur source panel PM04

Compound	C. difficile Mass (C. difficile ATCC 9689 [1]; carbon source (PM01/PM02))	C. difficile Mass (C. difficile ATCC 9689 [1]; [3])	also measured
Dextrin	0.0478 OD (750 nm)	–	–
N[C@H](CO)C(=O)O [D-Serine]	0.1114 OD (750 nm)	0.0465 OD (750 nm)	–
O=c1[nH]c(=O)c2[nH]cnc2[nH]1 [Xanthine]	–	0.2978 OD (750 nm)	–
N[C@@H](Cc1c[nH]cn1)C(=O)O [L-Histidine]	–	0.0361 OD (750 nm)	–
CCCCCCCCCC(=O)O [Capric acid]	0.014 OD (750 nm)	–	–
CSCC[C@H](N)C(=O)O [L-Methionine]	0.0818 OD (750 nm)	–	–
CC(=O)N[C@H]1C(O)O[C@H](CO)[C@H](O)[C@@H]1O (stereo partly drawn) [N-Acetyl-D-Galactosamine]	–	0.0355 OD (750 nm)	–
NCCc1c[nH]cn1 [Histamine]	–	0.0424 OD (750 nm)	–
N=C(N)NCCCCN [Agmatine]	–	0.043 OD (750 nm)	–
O=C[C@H](O)[C@@H](O)[C@H](O)[C@H](O)CO [D-glucose]	–	–	Average dye reduction rate of CHO-k1 in the presence of C. difficile supernatant (C. difficile ATCC 9689 [2]): 57.19; Corrected dye reduction rate (C. difficile ATCC 9689 [2]): 54.6
C[C@H](N)C(=O)O [L-Alanine]	0.113 OD (750 nm)	–	–
NCCC[C@H](N)C(=O)O [L-Ornithine]	–	0.0369 OD (750 nm)	–
CC(=O)N[C@H]1C(O)O[C@H](CO)[C@@H](O)[C@@H]1O (stereo partly drawn) [N-Acetyl-D-Glucosamine]	0.0955 OD (750 nm)	–	–
CC(=O)C(=O)O [Pyruvic Acid]	0.093 OD (750 nm)	–	–
NC(=O)CC[C@H](N)C(=O)O [L-Glutamine]	–	0.0339 OD (750 nm)	–
C[C@H](O)[C@@H](N)C(=O)O [D-Threonine]	0.0923 OD (750 nm)	–	–
NCCN [Ethylenediamine]	–	0.0369 OD (750 nm)	–
O=c1[nH]c(=O)c2[nH]c(=O)[nH]c2[nH]1 [Uric acid]	–	0.0556 OD (750 nm)	–
O=C(CO)[C@@H](O)[C@@H](O)[C@H](O)CO [D-Tagatose]	0.138 OD (750 nm)	–	–
Nc1ncnc2c1ncn2[C@@H]1O[C@H](CO)[C@@H](O)[C@H]1O [Adenosine]	–	0.0472 OD (750 nm)	C. difficile Mass (C. difficile ATCC 9689 [1]; nutritional stimulant panel PM05): 0.0414 OD (750 nm)
N[C@H]1C(O)O[C@H](CO)[C@@H](O)[C@@H]1O (stereo partly drawn) [D-Glucosamine]	–	0.0447 OD (750 nm)	–
NC(=O)C[C@@H](N)C(=O)O [D-Asparagine]	–	0.0321 OD (750 nm)	–
O=c1ccn([C@@H]2O[C@H](CO)[C@@H](O)[C@H]2O)c(=O)[nH]1 [Uridine]	–	0.0373 OD (750 nm)	–

Compound	C. difficile Mass (C. difficile ATCC 9689 [1]; carbon source (PM01/PM02))	C. difficile Mass (C. difficile ATCC 9689 [1]; [3])	also measured
CCN [Ethylamine]	–	0.0401 OD (750 nm)	–
CC(=O)N[C@H]1[C@H]([C@H](O)[C@H](O)CO)OC(O)(C(=O)O)C[C@@H]1O (some centres unmarked) [N-Acetyl-Neuraminic acid]	0.1163 OD (750 nm)	–	–
Nc1ccc(S(=O)(=O)O)cc1 [p-Aminobenzene Sulfonic acid]	–	–	C. difficile Mass (C. difficile ATCC 9689 [1]; [4]): 0.0485 OD (750 nm)
O=C(CO)[C@@H](O)[C@H](O)[C@H](O)CO [D-Fructose]	0.1435 OD (750 nm)	–	–
NCCCCN [Putrescine]	–	0.0339 OD (750 nm)	–
N[C@@H](CO)C(=O)O [L-Serine]	0.0635 OD (750 nm)	–	–
NCCS(=O)(=O)O [Taurine]	–	–	C. difficile Mass (C. difficile ATCC 9689 [1]; [4]): 0.0505 OD (750 nm)
N[C@@H](CS)C(=O)O [L-Cysteine]	–	0.0394 OD (750 nm)	–
C[C@@H](N)C(=O)O [D-Alanine]	0.1233 OD (750 nm)	0.038 OD (750 nm)	–
O=C(O)CC(Br)C(=O)O (centres unmarked) [Bromosuccinic Acid]	0.0335 OD (750 nm)	–	–
NC(=O)NC(N)=O [Biuret]	–	0.0394 OD (750 nm)	–
CN [Methylamine]	–	0.0398 OD (750 nm)	–
Nc1nc2c(ncn2[C@@H]2O[C@H](CO)[C@@H](O)[C@H]2O)c(=O)[nH]1 [Guanosine]	–	0.0092 OD (750 nm)	–
N[C@H](CC(=O)O)C(=O)O [D-Aspartic acid]	0.0269 OD (750 nm)	0.0109 OD (750 nm)	–
NCCCC[C@H](N)C(=O)O [L-Lysine]	–	0.0436 OD (750 nm)	–
O=c1[nH]c(=O)c2ncn([C@@H]3O[C@H](CO)[C@@H](O)[C@H]3O)c2[nH]1 [Xanthosine]	–	0.0516 OD (750 nm)	–
OC[C@H]1O[C@@H](Oc2ccc(O)cc2)[C@H](O)[C@@H](O)[C@@H]1O [Arbutin]	0.128 OD (750 nm)	–	–
O=S(=O)(O)CCO [2-Hydroxyethane Sulfonic acid]	–	–	C. difficile Mass (C. difficile ATCC 9689 [1]; [4]): 0.0428 OD (750 nm)
CCCCCN [N-Amylamine]	–	0.0433 OD (750 nm)	–
CCCCCCC(N)C(=O)O (racemic) [D,L-α-Amino-Caprylic acid]	–	0.0484 OD (750 nm)	–
Nc1ncnc2c1ncn2[C@@H]1O[C@H](COP(=O)(O)O)[C@@H](O)[C@H]1O [Adenosine 5′-Monophosphate]	–	–	C. difficile Mass (C. difficile ATCC 9689 [1]; [4]): 0.0495 OD (750 nm)
C[C@@H](O)[C@H](N)C(=O)O [L-Threonine]	0.0643 OD (750 nm)	–	–
